The values below come from patent US20230277570A1, “ENPP1 Inhibitors and Their Use for the Treatment of Cancer” (The Board of Trustees of the Leland Stanford Junior …, priority 2017, published 2023).

Each structure is given as a SMILES string.

In general, IC50 refers to the midpoint of a concentration-inhibition curve.

In the first experiment the target is T1, purified recombinant mouse ENPP1 (Mus musculus (Mouse), UniProt P06802). Briefly: ENPP1 activity assay using thymidine monophosphate paranitrophenol (TMP-pNP) as a substrate. In kind it is biochemical. As to conditions: TMP-pNP 2 μM, mouse ENPP1 0.5 nM, pH 7.5. The procedure: Selected compounds of Table 1, Table 2 and other derivatives were prepared and assessed in an ENPP1 activity assay using thymidine monophosphate paranitrophenol (TMP-pNP) as a substrate. Enzyme reactions were prepared with TMP-pNP (2 μM), 5-fold dilutions of ENPP1 inhibitor, and purified recombinant mouse ENPP1 (0.5 nM) in 100 mM Tris, 150 mM NaCl, 2 mM CaCl2, 200 μM ZnCl2, pH 7.5 at room temperature. Reaction progress was monitored by measuring absorbance at 400 nm of paranitrophenolate produced by the reaction for 20 minutes.
T1 sequence (P06802 whole entry): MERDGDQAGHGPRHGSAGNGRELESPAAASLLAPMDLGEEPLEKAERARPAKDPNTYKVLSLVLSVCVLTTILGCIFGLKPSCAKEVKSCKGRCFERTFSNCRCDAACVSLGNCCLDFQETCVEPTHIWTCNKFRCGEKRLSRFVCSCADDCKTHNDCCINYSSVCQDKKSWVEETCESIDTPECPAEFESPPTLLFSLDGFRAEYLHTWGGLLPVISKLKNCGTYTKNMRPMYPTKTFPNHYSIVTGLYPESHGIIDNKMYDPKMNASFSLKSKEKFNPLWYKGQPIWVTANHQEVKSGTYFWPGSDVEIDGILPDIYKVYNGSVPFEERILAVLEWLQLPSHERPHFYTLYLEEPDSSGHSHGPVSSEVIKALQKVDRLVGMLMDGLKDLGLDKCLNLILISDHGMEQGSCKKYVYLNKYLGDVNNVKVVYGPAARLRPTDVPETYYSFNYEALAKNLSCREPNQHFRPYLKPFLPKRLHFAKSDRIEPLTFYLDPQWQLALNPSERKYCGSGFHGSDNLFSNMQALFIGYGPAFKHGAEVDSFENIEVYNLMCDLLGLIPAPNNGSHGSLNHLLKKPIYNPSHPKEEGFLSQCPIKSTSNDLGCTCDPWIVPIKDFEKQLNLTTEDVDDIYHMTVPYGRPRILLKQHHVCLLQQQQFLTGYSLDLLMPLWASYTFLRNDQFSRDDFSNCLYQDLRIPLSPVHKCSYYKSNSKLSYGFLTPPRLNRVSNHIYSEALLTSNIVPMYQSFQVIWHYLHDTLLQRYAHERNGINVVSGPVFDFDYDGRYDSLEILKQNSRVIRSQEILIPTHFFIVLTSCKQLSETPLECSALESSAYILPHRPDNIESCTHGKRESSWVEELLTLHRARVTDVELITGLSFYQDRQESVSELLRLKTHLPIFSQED
Consider `COc1ccc2c(N3CCC(CCP(=O)(O)O)CC3)nc(/C=C/c3cccnc3)nc2c1` [Compound 18], for which the half-inhibitory concentration (IC50) is under 0.5 µM.

In the case of `COc1cc2nccc(N3CCC(CCP(=O)(O)O)CC3)c2cc1OC` [Compound 71], the IC50 is under 0.5 µM.

For the compound `COc1cc2ncnc(N3CCC(CC(=O)NO)CC3)c2cc1OC` [Compound 61], the 50% inhibitory concentration (IC50) is 0.5 to 5 µM.

For the compound `Nc1ccc2c(N3CCC(CCP(=O)(O)O)CC3)ncnc2c1` [Compound 30], the 50% inhibitory concentration (IC50) is under 0.5 µM.

`COc1cc2ncnc(N3CCC(CCB(O)O)CC3)c2cc1OC` [Compound 87]: the IC50 was under 0.5 µM.

With `O=P(O)(O)CCC1CCN(c2ncnc3ccc(O)cc23)CC1` [Compound 23], the IC50 lay in the range of 0.5 to 5 µM.

Take `COc1ccc2c(N3CCC(CCP(=O)(O)O)CC3)ncnc2c1OC` [Compound 22]: the concentration for half-maximal inhibition (IC50) was under 0.5 µM.

As to `COc1cc2ncnc([C@H]3CC[C@@H](CCP(=O)(O)O)CC3)c2cc1OC` [Compound 81, (2-((1,4-cis)-4-(6,7-dimethoxyquinazolin-4-yl)cyclohexyl)ethyl)phosphonic acid], the IC50 is under 0.5 µM.

Take `COc1cc(OC)c2ncnc(N3CCC(CCP(=O)(O)O)CC3)c2c1` [Compound 7]: the IC50 was under 0.5 µM.

`COc1cc2ccnc(N3CCC(CCP(=O)(O)O)CC3)c2cc1OC` [Compound 38]: the half-maximal inhibitory concentration (IC50) was under 0.5 µM.

As for `COc1ccc2ncnc(N3CCC(CCP(=O)(O)O)CC3)c2c1` [Compound 19], the 50% inhibitory concentration (IC50) is under 0.5 µM.

Consider `COc1cc2ncnc(N3CCC(CP(=O)(O)O)CC3)c2cc1OC` [Compound 88, ((1-(6,7-dimethoxyquinazolin-4-yl)piperidin-4-yl)methyl)phosphonic acid], for which the IC50 was under 0.5 µM.

For `Cc1nccn1-c1cc(N2CCN(CCP(=O)(O)O)CC2)ncn1` [Compound 100], the IC50 was under 0.5 µM.

Consider `CC(C)Oc1ccc2c(N3CCC(CCP(=O)(O)O)CC3)ncnc2c1` [Compound 11], for which the IC50 was over 10 µM.

Consider `O=P(O)(O)CCC1CCN(c2ncnc3cc(Cl)ccc23)CC1` [Compound 84], for which the concentration for half-maximal inhibition (IC50) is under 0.5 µM.

Consider `COc1cc2ncnc(N3CCC(COP(O)(O)=S)CC3)c2cc1OC` [Compound 67], for which the IC50 is under 0.5 µM.

In the case of `COc1ccc(OC)c2c(N3CCC(CCP(=O)(O)O)CC3)ncnc12` [Compound 16], the 50% inhibitory concentration (IC50) fell in the range of 0.5 to 5 µM.

With `Cc1nccn1-c1cc(N2CCC(CCP(=O)(O)O)CC2)ncn1` [Compound 93], the IC50 was under 0.5 µM.

On to `COc1cc2ncnc(N3CCN(C(=O)CP(=O)(O)O)CC3)c2cc1OC` [Compound 75], for which the IC50 was under 0.5 µM.

With `COc1cc2ncnc([C@H]3CC[C@H](CCP(=O)(O)O)CC3)c2cc1OC` [Compound 82, (2-((1,4-trans)-4-(6,7-dimethoxyquinazolin-4-yl)cyclohexyl)ethyl)phosphonic acid], the IC50 was under 0.5 µM.

As for `COc1cccc2c(N3CCC(COP(=O)(O)O)CC3)ncnc12` [Compound 86], the IC50 is under 0.5 µM.

Regarding `O=P(O)(O)CCC1CCN(c2ncnc3cccc(F)c23)CC1` [Compound 70], the IC50 is under 0.5 µM.

With `CNC(=O)NCC1CCN(c2ncnc3cc(OC)c(OC)cc23)CC1` [Compound 73], the 50% inhibitory concentration (IC50) was over 10 µM.

On to `O=P(O)(O)CCC1CCN(c2ncnc3cc4c(cc23)OCCO4)CC1` [Compound 13], for which the 50% inhibitory concentration (IC50) was in the range of 0.5 to 5 µM.

For `COc1cc2ncnc(N3CCC(COP(=O)(O)O)CC3)c2cc1OC` [Compound 60], the half-maximal inhibitory concentration (IC50) is under 0.5 µM.

For `COc1ccc2c(N3CCC(CCP(=O)(O)O)CC3)nc(C)nc2c1` [Compound 12], the IC50 was under 0.5 µM.

For the compound `COc1ccc2c(N3CCC(CCP(=O)(O)O)CC3)ncnc2c1` [Compound 10], the 50% inhibitory concentration (IC50) is under 0.5 µM.

In the case of `O=P(O)(O)CCC1CCN(c2ncnc3ccccc23)CC1` [Compound 25], the IC50 was under 0.5 µM.

Regarding `COc1cccc2c(N3CCC(CCP(=O)(O)O)CC3)ncnc12` [Compound 76], the IC50 was under 0.5 µM.

Consider `O=P(O)(O)CCC1CCN(c2ncnc3cc(O)ccc23)CC1` [Compound 5], for which the IC50 was under 0.5 µM.

`COc1ccc2c(N3CCN(CCP(=O)(O)O)CC3)ncnc2c1` [Compound 42]: the IC50 was over 10 µM.

On to `COc1cc2ncnc(N3CCC(CCP(O)(O)=S)CC3)c2cc1OC` [Compound 83, (2-(1-(6,7-dimethoxyquinazolin-4-yl)piperidin-4-yl)ethyl)phosphonothioic O,O-acid], for which the IC50 is under 0.5 µM.

The test system of another experiment is 4T1-luciferase tumor. Briefly: 4T1 tumor model: tumor volume and survival with IR, cGAMP, anti-CTLA-4. In kind it is in vivo, Balb/c mice. As to conditions: 20 Gy IR, then single agent intratumorally on day 2, 4 and 7 (100 μL of 100 μM compound 1 or 10 μg cGAMP).
With `Nc1nc2c(ncn2[C@@H]2O[C@@H]3COP(=O)(O)O[C@H]4[C@@H](O)[C@H](n5cnc6c(N)ncnc65)O[C@@H]4COP(=O)(O)O[C@@H]2[C@@H]3O)c(=O)[nH]1` [cGAMP, cyclic guanosine monophosphate-adenosine monophosphate], the “tumor shrinkage effect over IR treatment” value is “no effect over IR treatment”.

The next experiment deals with T1, purified recombinant mouse ENPP1. Briefly: ENPP1 enzyme activity assay using 32P cGAMP as a substrate (TLC). The format is biochemical. As to conditions: 32P-cGAMP 5 μM, mouse ENPP1 20 nM, pH 7.5, 5 hours.
As to `COc1ccc2c(N3CCC(CCP(=O)(O)O)CC3)nc(/C=C/c3cccnc3)nc2c1` [Compound 18], the IC50 is under 0.5 µM.

For the compound `COc1cc2ncnc(N3CCN(C(=O)CP(=O)(O)O)CC3)c2cc1OC` [Compound 75], the IC50 was 0.5 to 5 µM.

With `COc1ccc2c(N3CCC(CCP(=O)(O)O)CC3)ncnc2c1` [Compound 10], the half-maximal inhibitory concentration (IC50) is under 0.5 µM.

Turning to `COc1cccc2c(N3CCC(CCP(=O)(O)O)CC3)ncnc12` [Compound 76], the IC50 is under 0.5 µM.
